In patent US20260297081A1, “COMPOUNDS AND METHODS OF TREATING CANCERS” (Cullgen Inc., priority 2023, published 2026):

Biological target: CDK4 (Homo sapiens, UniProt P11802+Q16531)
Experiment: CDK4 percentage degradation in Calu-1 cells (Table 6)
Type: cell-based
Set-up: Cells that express cyclin D1-3 and CDK4/6 proteins were treated with heterobifunctional compounds; endogenous in cells; host or cells: Calu-1
Conditions: 16 hours; for inhibition at 0.04 µM: 40 nM; for inhibition at 0.2 µM: 200 nM
Outline: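 Calu-1 cells exposed to heterobifunctional compounds at 40 nM or 200 nM for 16 h. Cyclin D1 and CDK4 levels measured by Western blot of RIPA lysates (BCA-normalised loading), bands quantified by densitometry and expressed as percentage degradation.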

Chain of CDK4 (P11802 2-303 limits assumed): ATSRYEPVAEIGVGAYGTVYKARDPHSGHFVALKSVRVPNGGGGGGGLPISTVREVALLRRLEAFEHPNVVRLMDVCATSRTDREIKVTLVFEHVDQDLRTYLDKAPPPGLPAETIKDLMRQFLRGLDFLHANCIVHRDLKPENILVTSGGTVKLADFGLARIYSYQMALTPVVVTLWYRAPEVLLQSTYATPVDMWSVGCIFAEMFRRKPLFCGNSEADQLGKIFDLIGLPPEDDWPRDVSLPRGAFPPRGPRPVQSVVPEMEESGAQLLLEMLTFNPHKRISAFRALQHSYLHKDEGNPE
Chain of CDK4 (P24385 whole entry partner): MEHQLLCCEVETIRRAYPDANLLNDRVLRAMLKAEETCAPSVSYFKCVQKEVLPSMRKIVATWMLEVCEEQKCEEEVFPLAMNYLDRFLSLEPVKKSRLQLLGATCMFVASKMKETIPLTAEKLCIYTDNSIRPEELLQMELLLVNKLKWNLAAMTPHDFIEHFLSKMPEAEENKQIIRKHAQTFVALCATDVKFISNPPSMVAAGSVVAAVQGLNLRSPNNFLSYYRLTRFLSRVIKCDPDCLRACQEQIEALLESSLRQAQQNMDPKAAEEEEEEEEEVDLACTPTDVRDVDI
Chain of CDK4 (Q16531 2-1140 limits assumed): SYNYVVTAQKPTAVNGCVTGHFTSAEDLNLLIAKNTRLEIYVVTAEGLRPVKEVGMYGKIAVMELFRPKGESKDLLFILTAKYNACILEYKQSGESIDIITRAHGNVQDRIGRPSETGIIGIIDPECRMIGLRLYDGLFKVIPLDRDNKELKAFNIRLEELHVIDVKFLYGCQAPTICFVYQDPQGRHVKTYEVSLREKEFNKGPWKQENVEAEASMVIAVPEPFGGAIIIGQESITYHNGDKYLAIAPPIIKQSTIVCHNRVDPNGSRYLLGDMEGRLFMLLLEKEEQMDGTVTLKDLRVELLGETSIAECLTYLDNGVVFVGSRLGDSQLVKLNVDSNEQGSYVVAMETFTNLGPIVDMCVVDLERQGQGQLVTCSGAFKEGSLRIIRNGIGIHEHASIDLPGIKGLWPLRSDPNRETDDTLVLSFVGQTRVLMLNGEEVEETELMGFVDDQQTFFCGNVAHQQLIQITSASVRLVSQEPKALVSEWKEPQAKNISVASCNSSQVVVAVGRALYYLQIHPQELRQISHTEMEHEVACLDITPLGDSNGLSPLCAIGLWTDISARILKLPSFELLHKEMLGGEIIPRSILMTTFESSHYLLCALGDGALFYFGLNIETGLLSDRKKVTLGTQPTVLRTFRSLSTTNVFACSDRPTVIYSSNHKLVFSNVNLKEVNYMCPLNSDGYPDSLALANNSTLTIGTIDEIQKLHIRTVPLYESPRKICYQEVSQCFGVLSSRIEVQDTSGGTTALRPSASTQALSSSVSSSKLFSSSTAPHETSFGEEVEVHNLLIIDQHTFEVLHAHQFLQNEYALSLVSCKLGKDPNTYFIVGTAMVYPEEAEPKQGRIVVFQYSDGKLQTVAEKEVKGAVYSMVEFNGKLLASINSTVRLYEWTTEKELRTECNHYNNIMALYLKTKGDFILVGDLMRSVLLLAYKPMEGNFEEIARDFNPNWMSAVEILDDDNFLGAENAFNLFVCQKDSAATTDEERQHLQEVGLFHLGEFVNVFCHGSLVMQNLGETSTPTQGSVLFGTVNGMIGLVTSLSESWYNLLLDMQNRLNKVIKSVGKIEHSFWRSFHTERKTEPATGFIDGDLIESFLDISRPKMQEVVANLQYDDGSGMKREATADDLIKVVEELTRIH

| Structure (SMILES) | inhibition at 0.04 µM [%] | inhibition at 0.2 µM [%] |
| --- | --- | --- |
| CNc1ccc(C(=O)Nc2cccc(OC)n2)c(NC2CC3(CC(NC(=O)CN4CCN(c5ccc(Nc6ncc7c(C)c(C(C)=O)c(=O)n(C8CCCC8)c7n6)nc5)CC4)C3)C2)n1 (stereo not drawn) [CPD-161, 2-((6-(2-(4-(6-((6-acetyl-8-cyclopentyl-5-methyl-7-oxo-7,8-dihydropyrido[2,3-d]pyrimidin-2-yl)amino)pyridin-3-yl)piperazin-1-yl)acetamido)spiro[3.3]heptan-2-yl)amino)-N-(6-methoxypyridin-2-yl)-6-(methylamino)nicotinamide] | 50 to 80 | > 80 |
| CNc1ccc(C(=O)Nc2cccc(C3CC3)n2)c(NC2CC(CNC(=O)CN3CCN(c4ccc(Nc5ncc6c(C)c(C(C)=O)c(=O)n(C7CCCC7)c6n5)nc4)CC3)C2)n1 (stereo not drawn) [CPD-162, 2-((3-((2-(4-(6-((6-acetyl-8-cyclopentyl-5-methyl-7-oxo-7,8-dihydropyrido[2,3-d]pyrimidin-2-yl)amino)pyridin-3-yl)piperazin-1-yl)acetamido)methyl)cyclobutyl)amino)-N-(6-cyclopropylpyridin-2-yl)-6-(methylamino)nicotinamide] | 50 to 80 | 50 to 80 |
| [2H]C([2H])([2H])Nc1ccc(C(=O)Nc2cccc(C3CC3)n2)c(NC2CC3(CC(NC(=O)CN4CCN(c5ccc(Nc6ncc7c(C)c(C(C)=O)c(=O)n(C8CCCC8)c7n6)nc5)CC4)C3)C2)n1 (stereo not drawn) [CPD-163, 2-((6-(2-(4-(6-((6-acetyl-8-cyclopentyl-5-methyl-7-oxo-7,8-dihydropyrido[2,3-d]pyrimidin-2-yl)amino)pyridin-3-yl)piperazin-1-yl)acetamido)spiro[3.3]heptan-2-yl)amino)-N-(6-cyclopropylpyridin-2-yl)-6-((methyl-d3)amino)nicotinamide] | 50 to 80 | 50 to 80 |
| CNc1ccc(C(=O)Nc2ccc(N(C)C)nn2)c(NC2CC(OCC(=O)N3CCN(c4ccc(Nc5ncc6c(C)c(C(C)=O)c(=O)n(C7CCCC7)c6n5)nc4)CC3)C2)n1 (stereo not drawn) [CPD-168, 2-((3-(2-(4-(6-((6-acetyl-8-cyclopentyl-5-methyl-7-oxo-7,8-dihydropyrido[2,3-d]pyrimidin-2-yl)amino)pyridin-3-yl)piperazin-1-yl)-2-oxoethoxy)cyclobutyl)amino)-N-(6-(dimethylamino)pyridazin-3-yl)-6-(methylamino)nicotinamide] | 50 to 80 | > 80 |

Second part, the molecule after the results:

| inhibition at 0.04 µM [%] | inhibition at 0.2 µM [%] | Structure (SMILES) |
| --- | --- | --- |
| 50 to 80 | > 80 | CNc1ccc(C(=O)Nc2ccc(N(C)C)nn2)c(NC2CC(COCC(=O)N3CCN(c4ccc(Nc5ncc6c(C)c(C(C)=O)c(=O)n(C7CCCC7)c6n5)nc4)CC3)C2)n1 (stereo not drawn) [CPD-164, 2-((3-((2-(4-(6-((6-acetyl-8-cyclopentyl-5-methyl-7-oxo-7,8-dihydropyrido[2,3-d]pyrimidin-2-yl)amino)pyridin-3-yl)piperazin-1-yl)-2-oxoethoxy)methyl)cyclobutyl)amino)-N-(6-(dimethylamino)pyridazin-3-yl)-6-(methylamino)nicotinamide] |
| 50 to 80 | 50 to 80 | CNc1ccc(C(=O)Nc2ccc(N(C)C)nn2)c(NC2CC(CNC(=O)N3CCN(c4ccc(Nc5ncc6c(C)c(C(C)=O)c(=O)n(C7CCCC7)c6n5)nc4)CC3)C2)n1 (stereo not drawn) [CPD-166, 4-(6-((6-acetyl-8-cyclopentyl-5-methyl-7-oxo-7,8-dihydropyrido[2,3-d]pyrimidin-2-yl)amino)pyridin-3-yl)-N-((3-((3-((6-(dimethylamino)pyridazin-3-yl)carbamoyl)-6-(methylamino)pyridin-2-yl)amino)cyclobutyl)methyl)piperazine-1-carboxamide] |
